Usually IC50 stands for the concentration that inhibits the measured activity by half. A high value points to lower potency.

The text below walks through data of ChEMBL document CHEMBL1135956 (Bioorg Med Chem Lett, 2002).

The target of assay [1] is T1, Glucagon receptor (Homo sapiens, UniProt P47871). Briefly: Binding affinity of first enantiomer (E1) against human glucagon receptor was determined.
Assay [2] concerns the target T1, Glucagon receptor. Briefly: Binding affinity of second diastereomer (D2) against human glucagon receptor was determined.
Assay [3] has as its target T1, Glucagon receptor. Briefly: Binding affinity of second enantiomer (E2) against human glucagon receptor was determined.
The target of assay [4] is T1, Glucagon receptor. Briefly: Binding affinity of first diastereomer (D1) against human glucagon receptor was determined.
The nature of assay [5]: Compound was evaluated for the functional activity by the inhibition of cAMP production. (Cyclic AMP is a second messenger, typically raised through Gs and lowered through Gi signalling.)

T1 sequence (P47871 whole entry): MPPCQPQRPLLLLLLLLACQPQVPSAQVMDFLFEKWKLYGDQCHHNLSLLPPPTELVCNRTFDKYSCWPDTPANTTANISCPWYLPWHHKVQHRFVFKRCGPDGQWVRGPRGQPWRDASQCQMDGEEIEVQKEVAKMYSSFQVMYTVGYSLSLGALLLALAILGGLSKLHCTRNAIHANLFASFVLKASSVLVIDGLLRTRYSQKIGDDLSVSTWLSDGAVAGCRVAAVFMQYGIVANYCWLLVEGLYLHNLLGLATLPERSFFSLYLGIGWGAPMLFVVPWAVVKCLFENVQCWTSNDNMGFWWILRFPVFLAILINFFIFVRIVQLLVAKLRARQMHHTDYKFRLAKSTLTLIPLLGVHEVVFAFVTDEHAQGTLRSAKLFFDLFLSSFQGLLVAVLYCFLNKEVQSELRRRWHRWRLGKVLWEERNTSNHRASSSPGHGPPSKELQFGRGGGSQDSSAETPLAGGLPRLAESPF

On to `CCc1c(C(C)C)nc(C(C)C)c(C(C)O)c1-c1ccc(F)cc1O` (centres undefined), for which the IC50 in assay [1] was 5000 nM; in assay [2], 2000 nM; in assay [3], 16 nM; in assay [4], 20 nM.
For the compound `CCCCc1c(C(C)C)nc(C(C)C)c(C(C)O)c1-c1ccc(F)cc1O` (centres undefined), the IC50 was 1000 nM in assay [2] and 28 nM in assay [4].
`CCCc1c(C(C)C)nc(C(C)C)c(C(C)O)c1-c1ccccc1O` (centres undefined): the IC50 in assay [1] is 190 nM; in assay [2], 1100 nM; in assay [3], 25 nM; in assay [4], 40 nM.
In the case of `CCCc1c(C(C)C)nc(C(C)C)c(C(C)O)c1-c1ccc(F)cc1O` (centres undefined), the IC50 came out at 8000 nM in assay [1]; 1000 nM in assay [2]; 10 nM in assay [3]; 6.5 nM in assay [5]; 18 nM in assay [4].
For `CCCCCc1c(C(C)C)nc(C(C)C)c(C(C)O)c1-c1ccc(F)cc1O` (centres undefined), the IC50 in assay [1] was determined as 8000 nM; in assay [2], 2200 nM; in assay [3] it was 12 nM; in assay [4], 30 nM.
